These results are taken from patent US8946247B2, “Quinazoline carboxamide azetidines” (Merck Patent GmbH, priority 2010, dated 2015).

The IC50 is the concentration that gives 50% inhibition.

Each structure is given as a SMILES string. Some results are limits rather than exact numbers.

The target in one experiment is T1, P70S6K (T412E mutant) (Homo sapiens, UniProt P23443, T412E).
T1 construct: purchased Millipore
Nature of the experiment: p70S6K Enzyme Assay. The format is biochemical. To be noted: 24 μM ATP, 90 min at 25° C., Caliper mobility shift. As for the experimental part: p70S6K inhibitor compounds were diluted and plated in 96 well plates. A reaction mixture including the following components were then added to the compound plate to initiate the enzyme reaction; P70S6K (3 nM, T412E mutant, Millipore) was mixed with 24 μM ATP in an assay buffer containing 100 mM Hepes (pH 7.5), 5 mM MgCl2, 1 mM DTT, 0.015% Brij and 1 μM of the substrate peptide FITC-AHA-AKRRRLSSLRA-OH (derived from the S6 ribosomal protein sequence, FITC=fluorescein isothiocyanate, AHA=6-aminohexanoic acid). The reaction was incubated for 90 min at 25° C., before the addition of 10 mM EDTA to stop the reaction. The proportion of substrate and product (phosphorylated) peptide was analysed on a Caliper Life Sciences Lab Chip 3000, using a pressure of −1.4 psi, and upstream and downstream voltages of −3000 and −700 respectively. Product peaks were resolved before substrate peaks on the resulting chromatograms.
To assess the inhibitory potential of the compounds, IC50-values were determined, as shown in Chemical Synthesis section above.

For the next experiment, the system named is pS6 MDA-MB-468. Nature of the experiment: Cellular Activity Assay (phospho-S6 in MDA-MB-468 cells). The format is cell-based. The following applies: Homo sapiens, 2 hr compound incubation, percent pS6-positive cells. The method, then: MDA-MB-468 cells were grown in DMEM containing glutamine supplemented with 10% Fetal Bovine Serum (FBS) and 1× antibiotics. Cells were maintained by splitting 1:3 twice a week.
For the assay, cells were plated the evening before at a density of 4000 cells per well in black polyD lysine coated 384 well plates. Cells were incubated overnight (16 to 20 hours) in growth media. Compounds at an appropriate concentration were added to the wells and incubated for 2 hr. Controls included: i) no primary, ii) rabbit isotype, iii) propidium iodide (red) only and iv) anti-phospho-S6 antibody alone (green only). Cells were then fixed in 4% paraformaldehyde for 15-20 minutes at room temperature, then washed 3×80 ul with PBS.
50 ul 10% normal goat serum (NGS) with 0.2% triton X 100 in PBS were added and incubated for 30 to 60 minutes at room temperature. Anti-phospho-S6 antibody was diluted 1:800 2% with NGS in 0.2% TritonX-100 and 30 ul added to appropriate wells. The wells were incubated overnight at 4 degrees Celsius.
Then the wells were washed with 3×80 uL PBS. The secondary green fluorescence labeled antibody (Alexa Fluor® 488 F(ab′)2 fragment goat Anti-rabbit IgG (H+L)), was diluted 1:1500 in 2% NGS with 0.2% TritonX-100, and 30 ul were added to the appropriate wells which were then incubated in the dark at room temperature for 60 minutes. Then they were washed with 4×80 ul PBS. Propidium iodide (1.5 mM stock) was diluted 1:1000 in PBS, and 50 ul were added to the appropriate wells and incubated for 30 minutes at room temperature in the dark. Propidium iodide was not washed out. Plates were read on the Acumen Explorer.
Red and green cell populations were determined using controls. The number of green cells (pS6) and total number of cells (red) were then counted and the percentage of green cells was calculated. Percent positive cell data was plotted on a log scale against concentration of compounds and IC50 values were calculated from dose response curves.

The target in another experiment is T2, Aurora B (Homo sapiens, UniProt Q96GD4).
T2 construct: GST-Aurora B (1-344 amino acids); GST (N); purchased Carna Biosciences 05-102
Nature of the experiment: Aurora B Kinase Assay. The format is biochemical. To be noted: GST-Aurora B (1-344), 10 uM ATP, 90 min at 25 C. As for the experimental part:
To measure inhibitor activity of Aurora B inhibitors in the Caliper Life Sciences LC3000, a TTP Mosquito liquid handling instrument was used to place 0.25 ul of the appropriate concentration of inhibitor in 100% DMSO (for a dose response curve calculation) into each well of a 384-well plate. To this reaction components was added to a final volume of 25 ul: • 0.1 ng/ul GST-Aurora B (1-344 amino acids), (Carna Biosciences 05-102. N-terminal GST fusion with His tagged INCEP, accession number Q96GD4). • 10 uM ATP (Fluka, 02055) • 1 mM DTT (Sigma, D0632) • 1 mM MgCl2 (Sigma, M1028) • 1 uM substrate peptide (sequence FITC-LRRASLG-(CONH2), synthesized by Tufts Peptide Synthesis service. • 100 mM HEPES pH 7.5 (Calbiochem, 391338) • 0.015% Brij-35 (Sigma, B4184)
The reaction was incubated for 90 min at 25 C, and then stopped by the addition of 70 ul of Stop buffer (100 mM HEPES pH 7.5, 0.015% Brij-35, 10 mM EDTA (Sigma, E7889)).
The plate was read on a Caliper LC 3000 in an Off-Chip mobility shift assay format, using the following parameters for a 12-sipper chip: screening pressure −1.8 psi, upstream voltage −2700, downstream voltage −1000. These conditions caused unphosphorylated substrate and phosphorylated product peptide to resolve as separate peaks allowing direct measurement of percentage of conversion of substrate to product. The percent conversion was plotted against concentration of inhibitor to produce a sigmoidal dose response curve, from which an IC50 was calculated using XLFit for Microsoft Excel.

T2 sequence (Q96GD4 whole entry, the tested form may be a part): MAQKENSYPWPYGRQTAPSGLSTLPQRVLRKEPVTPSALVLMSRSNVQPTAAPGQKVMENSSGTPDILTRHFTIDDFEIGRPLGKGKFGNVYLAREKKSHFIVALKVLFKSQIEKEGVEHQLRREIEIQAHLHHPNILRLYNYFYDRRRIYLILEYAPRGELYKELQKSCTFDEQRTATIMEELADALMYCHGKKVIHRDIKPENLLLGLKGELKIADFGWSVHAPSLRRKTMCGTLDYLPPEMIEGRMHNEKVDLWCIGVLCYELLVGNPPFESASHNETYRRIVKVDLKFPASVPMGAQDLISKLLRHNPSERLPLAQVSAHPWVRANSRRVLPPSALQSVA
T2 sequence (Q9NQS7 803-918 partner limits assumed): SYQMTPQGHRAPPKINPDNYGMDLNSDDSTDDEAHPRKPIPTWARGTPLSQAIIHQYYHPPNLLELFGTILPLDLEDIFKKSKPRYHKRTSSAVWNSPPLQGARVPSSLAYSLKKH
T1 sequence (P23443 1-421 T412E limits assumed): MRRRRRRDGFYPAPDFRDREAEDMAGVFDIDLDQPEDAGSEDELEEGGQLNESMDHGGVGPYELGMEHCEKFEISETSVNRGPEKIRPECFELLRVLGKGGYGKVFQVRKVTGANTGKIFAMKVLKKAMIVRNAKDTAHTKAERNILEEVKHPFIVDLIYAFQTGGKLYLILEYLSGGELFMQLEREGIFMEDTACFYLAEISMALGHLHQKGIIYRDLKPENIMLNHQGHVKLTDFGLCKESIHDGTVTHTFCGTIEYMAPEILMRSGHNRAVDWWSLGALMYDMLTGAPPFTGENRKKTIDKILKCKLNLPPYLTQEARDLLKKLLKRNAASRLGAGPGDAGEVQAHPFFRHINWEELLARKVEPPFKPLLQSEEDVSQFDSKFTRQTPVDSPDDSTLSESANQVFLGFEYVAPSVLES

Regarding `NC(=O)c1ccc([C@@H](CN2CCC2)Nc2ncnc3c(C(N)=O)cccc23)cc1` [Example 35, 4-[(S)-2-Azetidin-1-yl-1-(4-carbamoylphenyl)-ethylamino]-quinazoline-8-carboxylic acid amide], the IC50 at P70S6K (T412E mutant) stood at 0.0086 µM; in the experiment on pS6 MDA-MB-468 it was 0.577 µM.
Taken in the same sequence, the figures for `CC(C)c1ccc([C@@H](CN2CCC2)Nc2ncnc3c(C(N)=O)cccc23)cc1` [Example 34, 4-[(S)-2-Azetidin-1-yl-1-(4-isopropylphenyl)-ethylamino]-quinazoline-8-carboxylic acid amide] were 0.0008 µM and 0.063 µM.
For `COc1cc([C@@H](CN2CCC2)Nc2ncnc3c(C(N)=O)cccc23)cc(F)c1F` [Example 40, 4-[(S)-2-Azetidin-1-yl-1-(3,4-difluoro-5-methoxyphenyl)-ethylamino]-quinazoline-8-carboxylic acid amide], the values for the IC50 at P70S6K (T412E mutant), on Aurora B and in the experiment on pS6 MDA-MB-468 (head printed in uM) were 0.13 µM, over 0.001 µM and over 10 µM, respectively.
On to `CC(C)Oc1ccc([C@@H](CN2CCC2)Nc2ncnc3c(C(N)=O)cccc23)cc1` [Example 36, 4-[(S)-2-Azetidin-1-yl-1-(4-isopropoxyphenyl)-ethylamino]-quinazoline-8-carboxylic acid amide], for which the IC50 at P70S6K (T412E mutant) was 0.4 µM; in the experiment with pS6 MDA-MB-468 (head printed in uM), over 10 µM.
Regarding `NC(=O)c1cccc2c(N[C@H](CN3CC(O)C3)c3ccc(F)c(F)c3)ncnc12` [Example 33, 4-[(S)-1-(3,4-Difluoro-phenyl)-2-(3-hydroxy-azetidin-1-yl)-ethylamino]-quinazoline-8-carboxylic acid amide], the values for the IC50 on P70S6K (T412E mutant) and against Aurora B were 0.0046 µM and 0.21 µM, respectively.
`NC(=O)c1cc(F)cc2c(N[C@H](CN3CCC3)c3ccc(Cl)c(F)c3)ncnc12` [Example 51, 4-[(S)-2-Azetidin-1-yl-1-(4-chloro-3-fluoro-phenyl)-ethylamino]-6-fluoro-quinazoline-8-carboxylic acid amide]: the IC50 on P70S6K (T412E mutant) is 0.001 µM; on Aurora B, 0.054 µM; in the experiment with pS6 MDA-MB-468 it was 0.064 µM.
Turning to `NC(=O)c1cccc2c(N[C@H](CN3CCC3)c3ccccc3)ncnc12` [Example 21, 4-[(S)-2-Azetidin-1-yl-1-phenyl-ethylamino]-quinazoline-8-carboxylic acid amide], the IC50 came out at 0.011 µM on P70S6K (T412E mutant) and 3.1 µM with pS6 MDA-MB-468.
For the compound `NC(=O)c1cccc2c(N[C@H](CN3CCC3)c3ccc(OC(F)(F)F)c(Cl)c3)ncnc12` [Example 28, 4-[(S)-2-Azetidin-1-yl-1-(3-chloro-4-trifluoromethoxy-phenyl)-ethylamino]-quinazoline-8-carboxylic acid amide], the IC50 at P70S6K (T412E mutant) came to 0.0024 µM; on Aurora B, 0.69 µM; in the experiment on pS6 MDA-MB-468, 0.061 µM.
`NC(=O)c1cccc2c(N[C@H](CN3CC(F)(F)C3)c3ccc(Cl)cc3)ncnc12` [Example 32, 4-[(S)-1-(4-Chloro-phenyl)-2-(3,3-difluoro-azetidin-1-yl)-ethylamino]-quinazoline-8-carboxylic acid amide]: the IC50 is 0.042 µM at P70S6K (T412E mutant), 0.34 µM at Aurora B and over 0.01 µM in the experiment on pS6 MDA-MB-468.
